# Experimental data as given in ChEMBL document CHEMBL5260825, “Chemical Constituents of Bryophytes: Structures and Biological Activity” (J Nat Prod, 2018).
# Values joined by “and” are separate entries in the source; they are usually repeats but may differ in a detail not shown here. Equal entries are not always repeated.
# Tests used:
# Rattus norvegicus [1] = organism: Rattus norvegicus; assay: Inhibition of iron-induced lipid peroxidation in rat liver microsomes in presence of NADPH; format: functional, Microsome
# Prothrombin = Prothrombin (Homo sapiens, UniProt P00734); assay: Inhibition of thrombin (unknown origin)
# [2] = Antiproliferative activity against human KBV cells assessed as cell growth inhibition; format: functional, cell-based
# Streptococcus mutans = assay: Antibacterial activity against Streptococcus mutans assessed as lethal dose; format: functional; settings: read-out: LD50 (the source's name)
# ZR-75-1 = assay: Antiproliferative activity against human ZR-75-1 cells assessed as cell growth inhibition; format: functional, cell-based
# [3] = Antiproliferative activity against human Lu1 cells assessed as cell growth inhibition; format: functional, cell-based
# KB = assay: Antiproliferative activity against human KB cells assessed as cell growth inhibition; format: functional, cell-based
# LNCaP = assay: Antiproliferative activity against human LNCaP cells assessed as cell growth inhibition; format: functional, cell-based
# [4] = tested on: Trichostrongylus colubriformis; assay: Anthelmintic activity against third stage larvae of Trichostrongylus colubriformis at 0.6 mg/ml by microscope based analysis relative to control; format: functional
# [5] = tested on: Trichostrongylus colubriformis; assay: Anthelmintic activity against third stage larvae of Trichostrongylus colubriformis by microscope based analysis; format: functional, organism-based
# [6] = tested on: Trichostrongylus colubriformis; assay: Anthelmintic activity against third stage larvae of Trichostrongylus colubriformis at 0.7 mg/ml by microscope based analysis relative to control; format: functional
# Cyclooxygenase = Cyclooxygenase (Homo sapiens, UniProt P35354+P23219); assay: Inhibition of COX (unknown origin); format: protein assay
# Candida albicans [7] = assay: Antifungal activity against Candida albican assessed as reduction in fluconazole MIC by microdilution method; format: functional
# [8] = tested on: Trypanosoma brucei brucei; assay: […] activity against Trypanosoma brucei brucei GUTat 3.1 assessed as inhibition of parasite growth measured after 72 hrs by alamar blue assay; format: functional, organism-based; settings: GUTat 3.1, time 72 hrs
# Caenorhabditis elegans = assay: Nematocidal activity against Caenorhabditis elegans; format: functional, organism-based
# HCT-116 = assay: Antiproliferative activity against human HCT-116 cells assessed as cell growth inhibition; format: functional
# [9] = Cytotoxicity against mouse 3T3 cells assessed as reduction in cell viability; format: toxicity, cell-based; settings: NIH3T3 cells
# NCI-H460 = assay: Antiproliferative activity against human NCI-H460 cells assessed as cell growth inhibition; format: functional
# K562 = assay: Antiproliferative activity against human K562 cells assessed as cell growth inhibition; format: functional
# HT-29 = assay: Antiproliferative activity against human HT-29 cells assessed as cell growth inhibition; format: functional, cell-based
# A549 = assay: Antiproliferative activity against human A549 cells assessed as cell growth inhibition; format: functional
# MCF7 = assay: Antiproliferative activity against human MCF7 cells assessed as cell growth inhibition; format: functional, cell-based
# P388 = assay: Antiproliferative activity against mouse P388 cells assessed as cell growth inhibition; format: functional, cell-based
# DU-145 = assay: Antiproliferative activity against human DU-145 cells assessed as cell growth inhibition; format: functional
# M14 = assay: Antiproliferative activity against human M14 cells assessed as cell growth inhibition; format: functional
# U-937 = assay: Antiproliferative activity against human U-937 cells assessed as cell growth inhibition; format: functional
# Leishmania amazonensis = assay: Antileishmanial activity against Leishmania amazonensis axenic amastigotes assessed as inhibition of parasite growth; format: functional, organism-based
# Leishmania donovani = assay: […] activity against drug sensitive Leishmania donovani assessed as inhibition of parasite growth; format: functional, organism-based
# Pyricularia oryzae = assay: Antifungal activity against Pyricularia oryzae assessed as inhibition of microbial growth; format: functional, organism-based
# [10] = tested on: Trypanosoma brucei brucei; assay: Antitrypanosomal activity against bloodstream Trypanosoma brucei brucei assessed as parasite growth inhibition measured after 72 hrs by alamar blue assay; format: functional, organism-based
# Plasmodium falciparum [11] = assay: Antimalarial activity against drug sensitive Plasmodium falciparum NF54 assessed as inhibition of parasite growth; format: functional, organism-based
# Candida albicans [12] = assay: Antifungal activity against Candida albicans assessed as inhibition of fungal growth by MTT assay; format: functional
# Neisseria meningitidis = assay: Antibacterial activity against Neisseria meningitidis assessed as inhibition of bacterial growth; format: functional
# Aspergillus niger = assay: Antifungal activity against Aspergillus niger assessed as inhibition of microbial growth; format: functional
# Homo sapiens [13] = organism: Homo sapiens; assay: Inhibition of LTB3 (unknown origin) at 0.0000001 M relative to control; settings: dose 100 nM
# Breast carcinoma cell = assay: Antiproliferative activity against human Breast cancer cell line assessed as cell growth inhibition; format: functional, cell-based
# [14] = tested on: Trichophyton mentagrophytes; assay: Antifungal activity against Trichophyton mentagrophytes assessed as inhibition of microbial growth; format: functional
# Bacillus subtilis = assay: Antibacterial activity against Bacillus subtilis assessed as inhibition of bacterial growth; format: functional
# [15] = target: T1, Polyunsaturated fatty acid 5-lipoxygenase (Homo sapiens) (UniProt P09917); assay: Inhibition of ALOX5 (unknown origin) at 0.0000001 M relative to control; settings: dose 100 nM
# T1 sequence (whole entry): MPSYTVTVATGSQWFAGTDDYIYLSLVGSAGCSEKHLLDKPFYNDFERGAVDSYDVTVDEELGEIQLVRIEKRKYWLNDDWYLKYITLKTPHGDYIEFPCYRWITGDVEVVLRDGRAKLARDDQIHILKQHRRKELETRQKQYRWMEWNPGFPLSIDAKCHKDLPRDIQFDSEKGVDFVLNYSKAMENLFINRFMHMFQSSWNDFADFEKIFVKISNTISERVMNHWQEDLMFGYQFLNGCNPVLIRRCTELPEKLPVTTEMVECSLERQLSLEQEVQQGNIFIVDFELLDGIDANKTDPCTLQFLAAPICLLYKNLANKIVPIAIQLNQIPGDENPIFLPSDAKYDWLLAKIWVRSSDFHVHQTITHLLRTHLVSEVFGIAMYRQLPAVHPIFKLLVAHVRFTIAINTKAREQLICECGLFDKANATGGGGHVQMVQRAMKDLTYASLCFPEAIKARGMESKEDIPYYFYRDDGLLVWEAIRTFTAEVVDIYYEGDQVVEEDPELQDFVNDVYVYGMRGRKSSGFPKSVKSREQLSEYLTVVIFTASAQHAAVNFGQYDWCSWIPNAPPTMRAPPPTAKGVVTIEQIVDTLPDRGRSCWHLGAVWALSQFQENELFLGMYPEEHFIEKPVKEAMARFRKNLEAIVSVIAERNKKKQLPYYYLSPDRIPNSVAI
# [16] = target: Calmodulin-1 (Homo sapiens) (UniProt P0DP23); assay: Inhibition of calmodulin (unknown origin)
# Cryptococcus neoformans = assay: […] activity against Cryptococcus neoformans assessed as inhibition of […]; format: functional
# [17] = target: T1, Polyunsaturated fatty acid 5-lipoxygenase (Homo sapiens); assay: Inhibition of ALOX5 (unknown origin) at 0.00001 M relative to control; settings: dose 10 µM
# Trypanosoma cruzi = assay: […] activity against drug sensitive Trypanosoma cruzi assessed as inhibition of parasite growth; format: functional, organism-based
# Streptococcus viridans = assay: Antibacterial activity against Streptococcus viridans assessed as inhibition of bacterial growth; format: functional
# Rhizoctonia solani = assay: Antifungal activity against Rhizoctonia solani assessed as inhibition of microbial growth; format: functional
# [18] = tested on: Acinetobacter calcoaceticus; assay: Antibacterial activity against Acinetobacter calcoaceticus assessed as inhibition of bacterial growth; format: functional
# [19] = target: T1, Polyunsaturated fatty acid 5-lipoxygenase (Homo sapiens); assay: Inhibition of ALOX5 (unknown origin) assessed as reduction in 5-HETE formation
# Homo sapiens [20] = organism: Homo sapiens; assay: Inhibition of LTB3 (unknown origin) at 0.000001 M relative to control; settings: dose 1 µM
# Haemophilus influenzae = assay: Antibacterial activity against Haemophilus influenzae assessed as inhibition of bacterial growth; format: functional
# [21] = tested on: Human immunodeficiency virus 1; assay: Antiviral activity against HIV-1; format: functional, organism-based
# [22] = target: T1, Polyunsaturated fatty acid 5-lipoxygenase (Homo sapiens); assay: Inhibition of ALOX5 (unknown origin) at 0.00000001 M relative to control; settings: dose 10 nM
# Streptococcus pyogenes = assay: Antibacterial activity against Streptococcus pyogenes assessed as inhibition of bacterial growth; format: functional
# Homo sapiens [23] = organism: Homo sapiens; assay: Inhibition of LTB3 (unknown origin) at 0.00001 M relative to control; settings: dose 10 µM
# [24] = tested on: Trypanosoma brucei rhodesiense; assay: […] activity against drug sensitive Trypanosoma brucei rhodesiense assessed as inhibition of parasite growth; format: functional, organism-based
# Bacillus cereus = assay: Antibacterial activity against Bacillus cereus assessed as inhibition of bacterial growth; format: functional
# [25] = Antioxidant activity assessed as DPPH radical scavenging activity; format: functional
# Plasmodium falciparum [26] = assay: Antimalarial activity against drug sensitive Plasmodium falciparum KI assessed as inhibition of parasite growth; format: functional, organism-based
# [27] = target: T1, Polyunsaturated fatty acid 5-lipoxygenase (Homo sapiens); assay: Inhibition of ALOX5 (unknown origin) at 0.000001 M relative to control; settings: dose 1 µM
# DNA polymerase beta = DNA polymerase beta (Homo sapiens, UniProt P06746); assay: Inhibition of DNA polymerase beta (unknown origin)
# Staphylococcus aureus = assay: Antibacterial activity against Staphylococcus aureus assessed as inhibition of bacterial growth; format: functional
# [28] = target: T1, Polyunsaturated fatty acid 5-lipoxygenase (Homo sapiens); assay: Inhibition of ALOX5 (unknown origin) assessed as reduction in calmodulin level
# Rattus norvegicus [29] = organism: Rattus norvegicus; assay: Inhibition of iron-induced lipid peroxidation in rat brain homogenate; format: functional
# Pasteurella multocida = assay: Antibacterial activity against Pasteurella multocida assessed as inhibition of bacterial growth; format: functional
# Priestia megaterium = assay: Antibacterial activity against Bacillus megaterium assessed as inhibition of bacterial growth; format: functional
# [30] = Inhibition of plasmodium falciparum fabZ
# Homo sapiens [31] = organism: Homo sapiens; assay: Inhibition of LTB3 (unknown origin) at 0.00000001 M relative to control; settings: dose 10 nM
# [32] = Antiplatelet activity against arachidonate-induced rabbit platelet assessed as inhibition of platelet aggregation at 50 ug/ml relative to control; format: functional; settings: Oryctolagus cuniculus
# [33] = Antiplatelet activity against arachidonate-induced rabbit platelet assessed as inhibition of platelet aggregation at 100 ug/ml relative to control; format: functional; settings: Oryctolagus cuniculus
# [34] = Antiplatelet activity against collagen-induced rabbit platelet assessed as inhibition of platelet aggregation at 100 ug/ml relative to control; format: functional; settings: Oryctolagus cuniculus
structure (smiles),measurement,setting,value
Oc1ccc2cc1Oc1ccc(cc1)CCc1cc(O)c(O)c(c1)Oc1cccc(c1)CC2,IC50,Rattus norvegicus [1],0.32 µM
Oc1cccc(CCc2ccc(Oc3cc(CCc4cccc(O)c4)ccc3O)cc2)c1,IC50,Prothrombin,18 µM
CC(C)=CCC[C@]1(C)CCC[C@]2(C)[C@@H](C=O)C(C=O)=CC[C@@H]12,IC50,[2],2.7 µM
same,LC50,Streptococcus mutans,8 µg/mL
same,IC50,ZR-75-1,5.7 µM
same,IC50,[3],5.7 µM
same,IC50,KB,3.2 µM
same,IC50,LNCaP,5.7 µM
COc1cccc(CCc2ccc(O)cc2)c1,inhibition at 600 µg/mL,[4],85%
same,IC50,[5],130 µg/mL
COc1ccc(CCc2cccc(OC)c2)cc1,inhibition at 700 µg/mL,[6],85%
Oc1ccc2c(c1)CCc1ccc(cc1)Oc1cc(ccc1O)CCc1ccc-2c(O)c1 [RICCARDI C],IC50,Cyclooxygenase,53.5 µM
same,MIC,Candida albicans [7],8 µg/mL
CC(=O)OCC1=CO[C@H](OC(C)=O)[C@@H]2[C@H]1[C@@H]1[C@H](CC[C@@]23CO3)C1(C)C,MIC,[8],14.5 µM
same,IC50,Caenorhabditis elegans,111 µg/mL
same,GI50,HCT-116,4.7 µM
same,GI50,[9],1.7 µM
same,IC50,KB,0.28 µg/mL
same,GI50,NCI-H460,4.8 µM
same,GI50,K562,4.8 µM
same,GI50,HT-29,1.9 µM
same,GI50,A549,9.4 µM
same,GI50,MCF7,6.8 µM
same,IC50,P388,3 µg/mL
same,GI50,DU-145,1.4 µM
same,GI50,M14,3.9 µM
same,GI50,U-937,2.6 µM
same,IC50,Leishmania amazonensis,7.1 µM
Oc1cc2cc(c1O)Oc1ccc(cc1)CCc1cccc(O)c1Oc1cccc(c1)CC2 [MARCHANTIN A],IC50,Leishmania donovani,1.59 µM
same,MIC,Pyricularia oryzae,12.5 µg/mL
same,IC50,[10],0.27 µg/mL
same,IC50,Plasmodium falciparum [11],3.41 µM
same,MID,Candida albicans [12],2.5 µg/mL
same,MIC,Neisseria meningitidis,72.7 µM
same,MIC,Aspergillus niger,25 µg/mL
same,IC50,Cyclooxygenase,46.4 µM
same,inhibition,Homo sapiens [13],70%
same,IC50,Breast carcinoma cell,5.5 µM
same,MIC,[14],3.13 µg/mL
same,MIC,Bacillus subtilis,25 µg/mL
same,inhibition,[15],45%
same,ID50,[16],1.85 µg/mL
same,MIC,Cryptococcus neoformans,12.5 µg/mL
same,inhibition,[17],89%
same,IC50,Trypanosoma cruzi,14.1 µM
same,IC50,KB,3.7 µM
same,MIC,Streptococcus viridans,18.1 µM
same,MIC,Rhizoctonia solani,50 µg/mL
same,MIC,[18],6.25 µg/mL
same,IC50,MCF7,4 µg/mL and 11.5 µM
same,ID50,[19],1.85 µg/mL
same,inhibition,Homo sapiens [20],97%
same,MIC,Haemophilus influenzae,72.7 µM
same,IC50,[21],5.3 µg/mL
same,inhibition,[22],16%
same,MIC,Streptococcus pyogenes,9.1 µM
same,inhibition,Homo sapiens [23],99%
same,IC50,[24],2.09 µM
same,MIC,Bacillus cereus,12.5 µg/mL
same,IC50,[25],20 µg/mL
same,IC50,Plasmodium falciparum [26],2.02 µM
same,inhibition,[27],94%
same,IC50,DNA polymerase beta,14.4 µM
same,MIC,Staphylococcus aureus,3.13 µg/mL and 0.0069 µM
same,ID50,[28],1.85 µg/mL
same,IC50,Rattus norvegicus [29],0.51 µM
same,MIC,Pasteurella multocida,4.5 µM
same,MIC,Priestia megaterium,25 µg/mL
same,IC50,[30],18.2 µM
same,inhibition,Homo sapiens [31],40%
C=C1CC[C@H]2[C@@H]([C@H]3C(COC(C)=O)=CO[C@H](OC(C)=O)[C@@H]13)C2(C)C,inhibition at 50 µg/mL,[32],45%
same,inhibition at 100 µg/mL,[33],95%
same,inhibition at 100 µg/mL,[34],100%
